SMILES strings stand for the structures.

Our source for the IC50 values is patent US20240109917A1 (ACTELION PHARMACEUTICALS LTD, priority 2020, published 2024).

Assay [1] concerns the target His6-TEV-PDGFRβ (557-1016) (Homo sapiens (Human), UniProt P09619). Briefly: PDGFRβ HTRF Assay. Type of assay: biochemical. The settings on record: read-out: PDGFR HTRF IC50. Put shortly: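 Human PDGFRβ (557-1016) pre-incubated with compound for 30 min at RT in pH 7.5 HEPES/MgCl2/EGTA/Brij-35/DTT buffer. Reaction started with ATP and TK-biotin peptide, run 3 h at RT, then quenched with EDTA-containing Eu-cryptate antibody/streptavidin-XL665. HTRF 665/620 nm ratio read after 60 min; percent inhibition relative to DMSO and 10 μM imatinib controls.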
(In general: In TR-FRET formats the signal depends on donor and acceptor labels being close together.)

The target of assay [2] is Tb-labeled inactive PDGFRβ (Homo sapiens (Human), UniProt P09619). Briefly: PDGFRβ LanthaScreen Assay. The settings on record: read-out: PDGFR Lantha IC50. Type of assay: binding.
Chain of Tb-labeled inactive PDGFRβ (P09619 33-1106): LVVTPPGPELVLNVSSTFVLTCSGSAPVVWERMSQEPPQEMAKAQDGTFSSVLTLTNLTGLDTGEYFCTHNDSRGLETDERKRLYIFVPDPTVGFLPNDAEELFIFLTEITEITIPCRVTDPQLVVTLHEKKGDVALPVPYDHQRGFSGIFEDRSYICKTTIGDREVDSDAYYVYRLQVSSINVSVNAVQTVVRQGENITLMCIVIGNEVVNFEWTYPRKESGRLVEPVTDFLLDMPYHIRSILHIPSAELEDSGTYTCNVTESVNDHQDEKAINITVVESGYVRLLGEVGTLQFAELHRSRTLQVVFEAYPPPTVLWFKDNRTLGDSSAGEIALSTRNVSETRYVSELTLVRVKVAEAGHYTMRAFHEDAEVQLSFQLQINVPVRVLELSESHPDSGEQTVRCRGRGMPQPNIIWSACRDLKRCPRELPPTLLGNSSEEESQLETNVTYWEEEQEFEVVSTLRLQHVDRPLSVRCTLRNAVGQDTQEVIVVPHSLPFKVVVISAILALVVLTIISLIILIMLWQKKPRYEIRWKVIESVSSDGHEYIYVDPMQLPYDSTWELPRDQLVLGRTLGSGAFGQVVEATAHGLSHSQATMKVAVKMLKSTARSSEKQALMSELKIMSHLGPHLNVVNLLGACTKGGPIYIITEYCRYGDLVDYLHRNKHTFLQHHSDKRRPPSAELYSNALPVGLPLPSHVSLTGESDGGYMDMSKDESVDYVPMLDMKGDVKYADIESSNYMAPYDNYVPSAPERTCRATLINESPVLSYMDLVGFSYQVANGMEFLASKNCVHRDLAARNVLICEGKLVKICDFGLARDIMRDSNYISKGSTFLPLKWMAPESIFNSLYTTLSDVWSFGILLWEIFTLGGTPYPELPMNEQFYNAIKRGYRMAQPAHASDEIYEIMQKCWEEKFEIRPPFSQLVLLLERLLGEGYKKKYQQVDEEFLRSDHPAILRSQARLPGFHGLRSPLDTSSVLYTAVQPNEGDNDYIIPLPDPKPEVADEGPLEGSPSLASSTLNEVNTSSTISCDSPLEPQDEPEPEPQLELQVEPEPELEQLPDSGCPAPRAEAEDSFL
Another assay has as its target PDGFRβ (Rattus norvegicus (Rat), UniProt Q05030). Briefly: PDGFRβ Cellular Assay (PDGFRb P-Y751 HTRF in A10 cells stimulated with PDGF-BB). Format: cell-based. The settings on record: read-out: PDGFR Cellular IC50. Put shortly: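 Rat A10 cells, plated overnight, were treated with compound for 3 hours, then stimulated with PDGF-BB (working stock 100 ng/mL in 10% FBS medium). After lysis, PDGFRβ P-Y751 was detected by HTRF.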

Chain of His6-TEV-PDGFRβ (557-1016) (P09619 557-1016): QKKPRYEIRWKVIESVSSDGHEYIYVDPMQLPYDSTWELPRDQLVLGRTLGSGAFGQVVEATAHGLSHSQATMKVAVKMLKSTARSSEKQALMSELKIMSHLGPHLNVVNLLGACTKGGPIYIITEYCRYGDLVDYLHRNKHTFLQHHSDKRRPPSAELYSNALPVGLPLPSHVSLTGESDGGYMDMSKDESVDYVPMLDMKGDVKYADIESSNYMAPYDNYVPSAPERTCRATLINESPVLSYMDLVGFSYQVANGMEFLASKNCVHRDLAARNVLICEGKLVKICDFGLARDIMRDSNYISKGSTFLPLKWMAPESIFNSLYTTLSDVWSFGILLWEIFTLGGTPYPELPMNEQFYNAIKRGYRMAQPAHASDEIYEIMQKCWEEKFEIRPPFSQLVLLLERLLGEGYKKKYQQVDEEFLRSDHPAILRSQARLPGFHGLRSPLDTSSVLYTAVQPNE
Chain of PDGFRβ (Q05030 32-1097): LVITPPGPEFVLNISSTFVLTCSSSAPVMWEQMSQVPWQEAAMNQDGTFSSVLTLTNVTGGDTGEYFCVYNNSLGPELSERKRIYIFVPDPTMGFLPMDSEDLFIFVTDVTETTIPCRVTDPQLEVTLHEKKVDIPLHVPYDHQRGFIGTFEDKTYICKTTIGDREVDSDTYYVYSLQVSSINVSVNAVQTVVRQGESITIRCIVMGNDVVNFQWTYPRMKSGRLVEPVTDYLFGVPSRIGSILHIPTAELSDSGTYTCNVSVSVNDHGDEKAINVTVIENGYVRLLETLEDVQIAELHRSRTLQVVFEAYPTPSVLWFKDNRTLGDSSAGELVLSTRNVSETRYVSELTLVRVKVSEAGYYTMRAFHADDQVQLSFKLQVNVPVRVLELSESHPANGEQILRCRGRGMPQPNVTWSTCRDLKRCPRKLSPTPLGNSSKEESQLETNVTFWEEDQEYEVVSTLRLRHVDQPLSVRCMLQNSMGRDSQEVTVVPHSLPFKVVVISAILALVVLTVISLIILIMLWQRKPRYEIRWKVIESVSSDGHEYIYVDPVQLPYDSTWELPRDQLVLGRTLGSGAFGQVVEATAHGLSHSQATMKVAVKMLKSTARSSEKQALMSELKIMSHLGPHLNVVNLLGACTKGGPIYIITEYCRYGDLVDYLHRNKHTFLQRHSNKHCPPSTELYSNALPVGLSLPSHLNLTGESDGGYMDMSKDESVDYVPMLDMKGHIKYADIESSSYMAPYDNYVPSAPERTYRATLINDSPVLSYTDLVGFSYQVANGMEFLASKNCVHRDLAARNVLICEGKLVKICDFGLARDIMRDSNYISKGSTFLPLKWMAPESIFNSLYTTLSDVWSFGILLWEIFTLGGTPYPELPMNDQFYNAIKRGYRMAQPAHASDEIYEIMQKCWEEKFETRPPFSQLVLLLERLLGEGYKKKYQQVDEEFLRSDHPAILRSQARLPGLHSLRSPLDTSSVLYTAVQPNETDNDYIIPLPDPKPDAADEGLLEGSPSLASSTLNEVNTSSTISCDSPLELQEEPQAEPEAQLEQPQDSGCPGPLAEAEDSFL

In general, IC50 refers to the concentration needed to halve the response being measured. Regarding `Cc1ncc(C(=O)NCCN2CC3CCC2CC3)cc1NC(=O)c1cnn2cc(-c3cccnc3)sc12` [Example 149, N-(5-((2-(2-azabicyclo[2.2.2]octan-2-yl)ethyl)carbamoyl)-2-methylpyridin-3-yl)-2-(pyridin-3-yl)pyrazolo[5,1-b]thiazole-7-carboxamide], the IC50 in assay [1] came out at 0.3 nM; in assay [2], 5 nM; at PDGFRβ, 36.2 nM.
For `CC(=O)Nc1cncc(-c2cn3ncc(C(=O)Nc4cc(C(=O)NCCN5CC6CCC5CC6)cnc4C)c3s2)c1` [Example 147, N-(5-((2-(2-azabicyclo[2.2.2]octan-2-yl)ethyl)carbamoyl)-2-methylpyridin-3-yl)-2-(5-acetamidopyridin-3-yl)pyrazolo[5,1-b]thiazole-7-carboxamide] the same measures were 0.8 nM, 6.9 nM and > 2000 nM.
For `Cc1ncc(C(=O)NCCN2CCCC2(C)C)cc1NC(=O)c1cnn2cc(-c3cnn(C)c3C)sc12` [Example 173, 2-(1,5-dimethyl-1H-pyrazol-4-yl)-N-(5-((2-(2,2-dimethylpyrrolidin-1-yl)ethyl)carbamoyl)-2-methylpyridin-3-yl)pyrazolo[5,1-b]thiazole-7-carboxamide] the same measures were 0.3 nM, 3.1 nM and 11.8 nM.
In the case of `Cc1ncc(C(=O)NCCN2CC3CCC2CC3)cc1NC(=O)c1cnn2cc(-c3cn(C)nc3C)sc12` [Example 178, N-(5-((2-(2-azabicyclo[2.2.2]octan-2-yl)ethyl)carbamoyl)-2-methylpyridin-3-yl)-2-(1,3-dimethyl-1H-pyrazol-4-yl)pyrazolo[5,1-b]thiazole-7-carboxamide], the IC50 is 0.2 nM in assay [1], 1.8 nM in assay [2] and 18.7 nM on PDGFRβ.
For `COCCn1cc(-c2cn3ncc(C(=O)Nc4cc(C(=O)NCCN5CC6CCC5CC6)cnc4C)c3s2)cn1` [Example 142, N-(5-((2-(2-azabicyclo[2.2.2]octan-2-yl)ethyl)carbamoyl)-2-methylpyridin-3-yl)-2-(1-(2-methoxyethyl)-1H-pyrazol-4-yl)pyrazolo[5,1-b]thiazole-7-carboxamide] the same measures were 0.5 nM, 4.2 nM and 71.7 nM.
For `CC(=O)N1CCN(CCNC(=O)c2cnc(C)c(NC(=O)c3cnn4cc(-c5cnn(C)c5)sc34)c2)CC1` [Example 129, N-(5-((2-(4-acetylpiperazin-1-yl)ethyl)carbamoyl)-2-methylpyridin-3-yl)-2-(1-methyl-1H-pyrazol-4-yl)pyrazolo[5,1-b]thiazole-7-carboxamide] the same measures were 2.9 nM, 87.1 nM and > 3000 nM.
For `Cc1ncc(C(=O)NCCN2CC(C)(C)C2)cc1NC(=O)c1cnn2cc(-c3ccncc3)sc12` [Example 155, N-(5-((2-(3,3-dimethylazetidin-1-yl)ethyl)carbamoyl)-2-methylpyridin-3-yl)-2-(pyridin-4-yl)pyrazolo[5,1-b]thiazole-7-carboxamide] the same measures were 1 nM, 39.4 nM and 153 nM.
Regarding `Cc1ncc(C(=O)NCCN2CCCC(F)(F)C2)cc1NC(=O)c1cnn2cc(-c3cnn(C)c3)sc12` [Example 123, N-(5-((2-(3,3-difluoropiperidin-1-yl)ethyl)carbamoyl)-2-methylpyridin-3-yl)-2-(1-methyl-1H-pyrazol-4-yl)pyrazolo[5,1-b]thiazole-7-carboxamide], the IC50 amounted to 0.3 nM in assay [1], 2.7 nM in assay [2] and 7.8 nM at PDGFRβ.
The corresponding values for `Cc1ncc(C(=O)NCCN2CCCC2(C)C)cc1NC(=O)c1cnn2cc(-c3cnn(C)c3)sc12` [Example 8, N-(5-((2-(2,2-dimethylpyrrolidin-1-yl)ethyl)carbamoyl)-2-methylpyridin-3-yl)-2-(1-methyl-1H-pyrazol-4-yl)pyrazolo[5,1-b]thiazole-7-carboxamide] are 0.4 nM, 4.7 nM and 43.6 nM.
Turning to `Cc1ncc(NC(=O)CCN2CCCC2(C)C)cc1NC(=O)c1cnn2cc(-c3cnn(C)c3)sc12` [Example 10, N-(5-(3-(2,2-dimethylpyrrolidin-1-yl)propanamido)-2-methyl-pyridin-3-yl)-2-(1-methyl-1H-pyrazol-4-yl)pyrazolo[5,1-b]thiazole-7-carboxamide], the IC50 was 0.3 nM in assay [1], 2.8 nM in assay [2] and 5.2 nM on PDGFRβ.
For `Cc1ncc(NC(=O)NCCC2CCN(C)CC2)cc1NC(=O)c1cnn2cc(-c3cnn(C)c3)sc12` [Example 108, 2-(1-methyl-1H-pyrazol-4-yl)-N-(2-methyl-5-(3-(2-(1-methylpiperidin-4-yl)ethyl)ureido)pyridin-3-yl)pyrazolo[5,1-b]thiazole-7-carboxamide] the same measures were 10.7 nM, 490 nM and > 3000 nM.
As for `COCCn1cc(-c2cn3ncc(C(=O)Nc4cc(C(=O)NCCN5CC(C)(C)C5)cnc4C)c3s2)cn1` [Example 166, N-(5-((2-(3,3-dimethylazetidin-1-yl)ethyl)carbamoyl)-2-methylpyridin-3-yl)-2-(1-(2-methoxyethyl)-1H-pyrazol-4-yl)pyrazolo[5,1-b]thiazole-7-carboxamide], the figures for the IC50 (in assay [1]; in assay [2]; on PDGFRβ) were 0.7 nM, 13.9 nM and 233 nM, respectively.
Consider `COCCN(CCNC(=O)c1cnc(C)c(NC(=O)c2cnn3cc(-c4cnn(C)c4)sc23)c1)CCOC` [Example 128, N-(5-((2-(bis(2-methoxyethyl)amino)ethyl)carbamoyl)-2-methylpyridin-3-yl)-2-(1-methyl-1H-pyrazol-4-yl)pyrazolo[5,1-b]thiazole-7-carboxamide], for which the half-inhibitory concentration (IC50) in assay [1] worked out at 0.9 nM; in assay [2], 18.3 nM; on PDGFRβ, 46.8 nM.
The corresponding values for `Cc1ncc(C(=O)NCCN2CCCC23COC3)cc1NC(=O)c1cnn2cc(-c3cnn(C)c3)sc12` [Example 114, N-(5-((2-(2-oxa-5-azaspiro[3.4]octan-5-yl)ethyl)carbamoyl)-2-methylpyridin-3-yl)-2-(1-methyl-1H-pyrazol-4-yl)pyrazolo[5,1-b]thiazole-7-carboxamide] are 0.4 nM, 4.6 nM and 27.6 nM.
On to `Cc1ncc(C(=O)NCCN2CC3CCC2CC3)cc1NC(=O)c1cnn2cc(-c3cnn(C4COC4)c3)sc12` [Example 144, N-(5-((2-(2-azabicyclo[2.2.2]octan-2-yl)ethyl)carbamoyl)-2-methylpyridin-3-yl)-2-(1-(oxetan-3-yl)-1H-pyrazol-4-yl)pyrazolo[5,1-b]thiazole-7-carboxamide], for which the results for the IC50 (in assay [1]; in assay [2]; at PDGFRβ) were 0.3 nM, 3.6 nM and 106 nM, respectively.
Take `Cc1ncc(C(=O)NCCN2CCC23CCC3)cc1NC(=O)c1cnn2cc(-c3cn(C)nc3C)sc12` [Example 175, N-(5-((2-(1-azaspiro[3.3]heptan-1-yl)ethyl)carbamoyl)-2-methylpyridin-3-yl)-2-(1,3-dimethyl-1H-pyrazol-4-yl)pyrazolo[5,1-b]thiazole-7-carboxamide]: the IC50 was determined as 0.5 nM in assay [1], 3.8 nM in assay [2] and 16.6 nM at PDGFRβ.
For `Cc1ncc(C(=O)NCCN2Cc3ncsc3C2)cc1NC(=O)c1cnn2cc(-c3cnn(C)c3)sc12` [Example 111, N-(5-((2-(4H-pyrrolo[3,4-d]thiazol-5 (6H)-yl)ethyl)carbamoyl)-2-methylpyridin-3-yl)-2-(1-methyl-1H-pyrazol-4-yl)pyrazolo[5,1-b]thiazole-7-carboxamide] the same measures were 1.1 nM, 36.4 nM and 294 nM.
